# pIC50: −log10 of the molar value.
# What was measured:
# Format in all cases: functional, cell-based
# [1] = test system: HCC70; experiment: Cytotoxicity against human HCC70 cells assessed as growth inhibition after 72 hrs by SRB assay
# [2] = test system: MDA-MB-468; experiment: Cytotoxicity against human MDA-MB-468 cells assessed as growth inhibition after 72 hrs by SRB assay
# [3] = test system: BT-549; experiment: Cytotoxicity against human BT549 cells assessed as growth inhibition after 72 hrs by SRB assay
# [4] = test system: MDA-MB-231; experiment: Cytotoxicity against human MDA-MB-231 cells assessed as growth inhibition after 72 hrs by SRB assay
SMILES,pIC50 ([1]; hcc70),pIC50 ([2]; mda-mb-468),pIC50 ([3]; bt-549),pIC50 ([4]; mda-mb-231),"pIC50 ([1]; Homo sapiens, HCC70, 72 h)","pIC50 ([2]; Homo sapiens, MDA-MB-468, 72 h)","pIC50 ([3]; Homo sapiens, BT-549, 72 h)","pIC50 ([4]; Homo sapiens, MDA-MB-231, 72 h)"
CC1=C[C@H]2O[C@@H]3C[C@H]4OC(=O)/C=C\C=C\[C@H]([C@@H](C)O)OCC/C(C)=C/C(=O)OC[C@@]2(CC1)[C@]4(C)[C@]31CO1 [RORIDIN E],10.70,10.30,10.70,10.52,–,–,–,–
C/C1=C\C(=O)OC[C@@]23CC[C@](C)(O)[C@H]4C[C@@]5(O)[C@@H](C[C@@H](OC(=O)/C=C\C=C\[C@H]([C@@H](C)O)OCC1)[C@]25C)O[C@H]43,–,–,–,–,< 5.00,< 5.00,< 5.00,< 5.00
COc1cccc2c1C(=O)c1c(O)c3c(c(O)c1C2=O)C[C@@](O)(C(=O)CO)C[C@@H]3O[C@H]1C[C@H](N)[C@H](O)[C@H](C)O1 [DOXORUBICIN],–,–,–,–,7.30,7.15,8.00,7.10
CC1=C[C@H]2O[C@@H]3C[C@H]4OC(=O)/C=C\C=C\[C@]5([C@H](C)O)OCC/C(=C\C(=O)OC[C@@]2(CC1)[C@]4(C)[C@@]31CO1)[C@H]5O,5.66,5.47,5.74,5.70,–,–,–,–
COC(=O)/C=C/C=C/[C@@H](OCC/C(C)=C/C(=O)OC[C@]12CCC(C)=C[C@H]1O[C@@H]1C[C@@H](O)[C@@]2(C)[C@@]12CO2)[C@@H](C)O,< 5.00,< 5.00,< 5.00,< 5.00,–,–,–,–
COc1cc([C@@H]2c3cc4c(cc3[C@@H](O[C@@H]3O[C@@H]5CO[C@@H](C)O[C@H]5[C@H](O)[C@H]3O)[C@H]3COC(=O)[C@H]23)OCO4)cc(OC)c1O [ETOPOSIDE],–,–,–,–,5.74,5.68,5.74,5.64
CC1=C[C@H]2O[C@@H]3C[C@@H](OC(=O)/C=C\C=C\[C@]4([C@H](C)O)OCC/C(=C\C(=O)O)[C@@H]4O)[C@](C)([C@@]2(CO)CC1)[C@@]31CO1,5.11,< 5.00,5.74,5.44,–,–,–,–
CC1=C[C@H]2O[C@@H]3C[C@H]4OC(=O)/C=C\C=C\[C@]5([C@H](C)O)OCC/C(=C\C(=O)OC[C@@]2(CC1)[C@]4(C)[C@@]31CO1)[C@@H]5O,9.00,8.52,9.52,9.40,–,–,–,–
CC1=C[C@H]2O[C@@H]3C[C@@H](OC(=O)/C=C\C=C\[C@@H](OCCC4=CC(=O)OC4)[C@@H](C)O)[C@](C)([C@@]2(COC(=O)/C=C(\C)CCO)CC1)[C@@]31CO1,7.70,7.10,8.40,7.70,–,–,–,–
CC1=C[C@H]2O[C@@H]3C[C@@H](OC(=O)/C=C\C=C\[C@@H](OCCC4=CC(=O)OC4)[C@@H](C)O)[C@](C)([C@@]2(CO)CC1)[C@@]31CO1,< 5.00,< 5.00,< 5.00,< 5.00,–,–,–,–

# Reference: ChEMBL document CHEMBL4371018, “Macrocyclic Trichothecene Mycotoxins from a Deadly Poisonous Mushroom, Podostroma cornu-damae” (J Nat Prod, 2019)
